Values of other authors, collected in patent publication US20190343121A1, “Cinmethylin Microcapsules with a Shell Made of Tetramethylxylylene Diisocyanate and a Polyamine with at Least Three Amine Groups” (BASF Agro B.V., priority 2016, published 2019).

Details: at 20° C.

Substance: (±)-2-exo-(2-methylbenzyloxy)-1-methyl-4-isopropyl-7-oxabicyclo[2.2.1]heptane [Cinmethylin]
- solubility in water: 63 µg/mL
